Reference: paper PMC10101232, “Population pharmacokinetics of vancomycin in very low birth weight neonates” (Frontiers in Pediatrics, 2023)
Read-outs that look alike come from different tables or passages of the source.

What was measured:
[1] = model from 10 VLBW neonates, 10 mg/kg every 8 h, ref Kato et al. [16]; cited from earlier work
From the text: The most commonly used tertiary dosing references present vancomycin dosing recommendations for neonates considering only one or two of these variables. For example, Micromedex NeoFax recommends dosing based on a combination of PMA and PNA, pediatric and neonatal Lexicomp recommends two different dosing strategies, one based on a combination of PMA and PNA and the other based on a combination of GA and Scr (Table 1). As a result, the daily doses can differ widely by up to 50% between these studies. Studies have reported that the probability of achieving vancomycin therapeutic targets in neonat ... || To date, only two studies with very small sample size have evaluated the optimal vancomycin dosing in VLBW neonates ([16], [17]). Kato et al. ([16]) recommended a vancomycin dose of 10 mg/kg every 8 h as the initial dosage regimen for vancomycin in VLBW neonates. This model predicted vancomycin therapeutic target achievement in 86.7% of neonates. However, they developed their model based on data from only 10 VLBW neonates, and the simulations were not divided into categories according to Scr and PMA. The major difference between our findings and the Kato et al. model is that for most groups, e ...

[2] = cited from earlier work; for risk of nephrotoxicity: adults, ref [30]
[3] = Vancomycin population pharmacokinetic model (one-compartment, Monolix) from serum concentrations in VLBW neonates
Protocol: Data were retrieved for VLBW neonates (0–30 days old) who were admitted to the NICU and received vancomycin for proven or suspected MRSA or MRCONS infections. Patients were included if they received vancomycin for more than 48 h and had at least one vancomycin serum trough concentration measurement in a steady state. The collected data included PNA, PMA, weight, Scr, vancomycin dose, frequency and concentrations. […] Subsequent dose adjustments were guided by the vancomycin trough concentrations. In King Saud University Medical City, both vancomycin peak and trough concentrations were obtained for therapeutic drug monitoring. In all other hospitals, the practice was to collect trough concentrations only. Peak samples were collected 1 h after the end of infusions, and trough concentrations were collected 30 min before the next dose in a steady state. Exclusion criteria were: renal failure, receiving hemodialysis, missing dosing information and those sampled before the steady state were excluded.
One hospital used a chemiluminescent microparticle immunoassay with an Architect i4000SR immunoassay analyzer (Abbott), two hospitals used the kinetic interaction of microparticles in solution (KIMS) with a Cobas c system (Roche/Hitachi), and three hospitals used the homogeneous particle-enhanced turbidimetric inhibition immunoassay (PETINIA) with an Alinity c analyzer (Abbott). The assay range for the Architect immunoassay is from 0.5 to 83 µg/ml, the range for the KIMS assay is 4–80 µg/ml, and the range for the PETINIA is 1.4–100 µg/ml. For the Scr assays, four centers used the Jaffe method, and two centers used the enzymatic method.
We split the data randomly into the training (70%) and validation (30%) data sets. […] Pharmacokinetic modeling was performed using the Monolix software (2020R1) with the stochastic approximation expectation maximization algorithm.
First, we developed a structural model for vancomycin. This included testing one- and two-compartment models with linear and nonlinear elimination. For the between-subject variability in pharmacokinetic parameters, we used the following lognormal distribution: pi=p.exp⁡(ηi), where pi is the individual pharmacokinetic estimate for the i^th individual, p is the median value of the pharmacokinetic parameter, and ηi is the standard deviation for the i^th individual with a mean of 0 and variance ω^2. For residual unexplained variability, we tested different statistical models, including the constant, proportional, and combined error models. As different assays were used for vancomycin, we tested having different residual variability models accordingly.
After we developed the base model, we evaluated the effect of covariates on pharmacokinetic parameters. […]

In the case of `CN[C@H](CC(C)C)C(=O)N[C@H]1C(=O)N[C@@H](CC(N)=O)C(=O)N[C@H]2C(=O)N[C@H]3C(=O)N[C@H](C(=O)N[C@H](C(=O)O)c4cc(O)cc(O)c4-c4cc3ccc4O)[C@H](O)c3ccc(c(Cl)c3)Oc3cc2cc(c3O[C@@H]2O[C@H](CO)[C@@H](O)[C@H](O)[C@H]2O[C@H]2C[C@](C)(N)[C@H](O)[C@H](C)O2)Oc2ccc(cc2Cl)[C@H]1O` [vancomycin], the “predicted vancomycin therapeutic target achievement” value [1] is given as 86.7%, the “probable vancomycin-related nephrotoxicity, neonates affected” value ([2]; VLBW neonates, ref Madigan et al. [41]) is given as “two out of 57” and the risk of nephrotoxicity ([2]; troughs >20 µg/ml) is given as “approximately 30%”. The risk of nephrotoxicity ([2]; troughs between 15 and 20 µg/ml) was “approximately 15%”, the “nephrotoxicity, patients” value ([2]; infants, ref Viel-Thériault et al. [42]) was 6% and the “subjects who developed nephrotoxicity” value ([2]; neonatal intensive care unit, ref Bhargava et al. [39]) was “three out of 110”. For the same molecule, the “AUC0−24 cutoff as a predictor of nephrotoxicity” value ([2]; neonates, ref Tang et al. [43]) was greater than 485 µg·h/mL, the “neonates who developed nephrotoxicity” value ([2]; neonates, ref Tang et al. [43]) was “seven out of 182” and the “typical Cl value” ([3]; VLBW neonate weighing 0.93 kg, PMA 26 weeks, Scr 0.6 mg/dl) was 0.09 L/h. For the same molecule, the “TMA50 (PMA at which CL is 50% of the mature value)” value ([3]; final model) was 26.3 weeks, the “Cl (total body clearance), estimate” value ([3]; final population PK model, VLBW neonates, training data set N = 162) was 0.09 L/h and the “V (volume of distribution), estimate” value ([3]; final population PK model, VLBW neonates, training data set N = 162, typical value at 0.93 kg) was 0.81 L.
